Patent publication US11278587B2 (9 METERS BIOPHARMA, INC., priority 2018, dated 2022)
Ends that are not written are not given here.

System: MCA205 fibrosarcoma cells
Assay: MCA205 subcutaneous model, tumor growth kinetics
Format: in vivo, C57BL/6 mice
Conditions: larazotide 2 days per week with anti-PD1 antibody i.p. at 3 day intervals

For GGVLVQPG [larazotide], the “enhancement of anti-PD1 effect on MCA205 tumor progression” value was “did not appear to enhance this effect”.
